# Measured values as given in ChEMBL document CHEMBL4831500, “Discovery of first-in-class imidazothiazole-based potent and selective ErbB4 (HER4) kinase inhibitors” (Eur J Med Chem, 2021).
# Assays:
# [1] = system: Panel NCI-60 (60 carcinoma cell lines); assay: Growth inhibition of human panel NCI-60 (60 carcinoma cells) assessed as growth percent at 10 uM measured after 48 hrs by SRB assay relative to control; format: functional; conditions: read-out: Activity
# HCC 2998 = assay: Antiproliferative activity against human HCC 2998 cells assessed as cell growth inhibition measured after 48 hrs by SRB assay; format: functional, cell-based; conditions: HCC 2998, 48 h
# SK-MEL-5 = assay: Antiproliferative activity against human SK-MEL-5 cells assessed as cell growth inhibition measured after 48 hrs by SRB assay; format: functional, cell-based; conditions: SK-MEL-5, 48 h
# UO-31 [2] = assay: Antiproliferative activity against human UO-31 cells assessed as cell growth inhibition measured after 48 hrs by SRB assay; format: functional, cell-based; conditions: UO-31, 48 h
# DU-145 [3] = assay: Antiproliferative activity against human DU-145 cells assessed as cell growth inhibition measured after 48 hrs by SRB assay; format: functional, cell-based; conditions: DU-145, 48 h
# MDA-MB-468 = assay: Antiproliferative activity against human MDA-MB-468 cells assessed as cell growth inhibition measured after 48 hrs by SRB assay; format: functional, cell-based; conditions: MDA-MB-468, 48 h
# MOLT-4 = assay: Antiproliferative activity against human MOLT-4 cells assessed as cell growth inhibition at 10 uM measured after 48 hrs by SRB assay relative to control; format: functional
# NCI-H522 = assay: Antiproliferative activity against human NCI-H522 cells assessed as cell growth inhibition at 10 uM measured after 48 hrs by SRB assay relative to control; format: functional
# U-251 = assay: Antiproliferative activity against human U-251 cells assessed as cell growth inhibition at 10 uM measured after 48 hrs by SRB assay relative to control; format: functional
# OVCAR-4 = assay: Antiproliferative activity against human OVCAR-4 cells assessed as cell growth inhibition at 10 uM measured after 48 hrs by SRB assay relative to control; format: functional
# UO-31 [4] = assay: Antiproliferative activity against human UO-31 cells assessed as cell growth inhibition at 10 uM measured after 48 hrs by SRB assay relative to control; format: functional
# DU-145 [5] = assay: Antiproliferative activity against human DU-145 cells assessed as cell growth inhibition at 10 uM measured after 48 hrs by SRB assay relative to control; format: functional
# [6] = Cytotoxicity against human WI-38 cells assessed as cell growth inhibition at 10 uM measured after 48 hrs by SRB assay relative to control; format: cell-based
# [7] = molecular target: Serine/threonine-protein kinase B-raf (Homo sapiens, UniProt P15056); assay: Inhibition of wild type B-RAF (unknown origin) at 10 uM incubated for 40 mins in presence of Mg/ATP mix by [gamma p33]-ATP based scintillation counting method relative to control
# [8] = molecular target: T1, Epidermal growth factor receptor (Homo sapiens, UniProt P00533); assay: Inhibition of EGFR (unknown origin) at 10 uM incubated for 40 mins in presence of Mg/ATP mix by [gamma p33]-ATP based scintillation counting method relative to control
# [9] = molecular target: Fibroblast growth factor receptor 1 (Homo sapiens) (UniProt P11362); assay: Inhibition of FGFR1 (unknown origin) at 10 uM incubated for 40 mins in presence of Mg/ATP mix by [gamma p33]-ATP based scintillation counting method relative to control
# [10] = molecular target: Vascular endothelial growth factor receptor 2 (Homo sapiens, UniProt P35968); assay: Inhibition of KDR (unknown origin) at 10 uM incubated for 40 mins in presence of Mg/ATP mix by [gamma p33]-ATP based scintillation counting method relative to control
# [11] = molecular target: RAF proto-oncogene serine/threonine-protein kinase (Homo sapiens, UniProt P04049); assay: Inhibition of RAF1 (unknown origin) at 10 uM incubated for 40 mins in presence of Mg/ATP mix by [gamma p33]-ATP based scintillation counting method relative to control
# [12] = molecular target: Tyrosine-protein kinase JAK3 (Homo sapiens) (UniProt P52333); assay: Inhibition of JAK3 (unknown origin) at 10 uM incubated for 40 mins in presence of Mg/ATP mix by [gamma p33]-ATP based scintillation counting method relative to control
# [13] = molecular target: T1, Epidermal growth factor receptor; assay: Inhibition of EGFR (unknown origin) incubated for 40 mins in presence of Mg/ATP mix by [gamma p33]-ATP based scintillation counting method
# [14] = molecular target: Tyrosine-protein kinase JAK3 (Homo sapiens, UniProt P52333); assay: Inhibition of JAK3 (unknown origin) incubated for 40 mins in presence of Mg/ATP mix by [gamma p33]-ATP based scintillation counting method
# Homo sapiens [15] = species on record: Homo sapiens; assay: Selectivity ratio of IC50 for inhibition of EGFR (unknown origin) to IC50 for inhibition of ErbB4 (unknown origin); conditions: dose 10.0 µM, time 40.0 min
# Homo sapiens [16] = species on record: Homo sapiens; assay: Selectivity ratio of IC50 for inhibition of JAK3 (unknown origin) to IC50 for inhibition of ErbB4 (unknown origin); conditions: dose 10.0 µM, time 40.0 min
# Homo sapiens [17] = species on record: Homo sapiens; assay: Selectivity index, ratio of IC50 for inhibition of BRAF V600E mutant (unknown origin) to IC50 for inhibition of ErbB4 (unknown origin); conditions: dose 10.0 µM, time 40.0 min
# [18] = molecular target: T2, Receptor tyrosine-protein kinase erbB-4 (Homo sapiens, UniProt Q15303); assay: Potency index, ratio of staurosporine IC50 to test compound IC50 for inhibition of ErbB4 (unknown origin) at 10 uM incubated for 40 mins in presence of Mg/ATP mix by [gamma p33]-ATP based scintillation counting method
# T47D = assay: Antiproliferative activity against human T47D cells assessed as cell growth inhibition measured after 48 hrs by SRB assay; format: functional, cell-based
# [19] = molecular target: T2, Receptor tyrosine-protein kinase erbB-4; assay: Inhibition of ErbB4 expressed in human T47D cells at antiproliferative IC50 in presence of -neuregulin 1 incubated for 90 mins by sandwich ELISA relative to control; format: cell-based
# [20] = molecular target: Voltage-gated inwardly rectifying potassium channel KCNH2 (Homo sapiens, UniProt Q12809); assay: Inhibition of human ERG incubated for 3 hrs by competitive fluorescence tracer binding based assay
# hERG (KCNH2) = hERG (KCNH2) (Homo sapiens, UniProt Q12809); assay: Safety index, ratio of test compound IC50 to E-4031 IC50 for inhibition of human ERG incubated for 3 hrs by competitive fluorescence tracer binding based assay; conditions: read-out: Ratio IC50
# Cytochrome P450 2D6 = Cytochrome P450 2D6 (Homo sapiens, UniProt P10635); assay: Inhibition of CYP2D6 (unknown origin) using EOMCC as a substrate incubated for 20 mins by fluorescence based analysis; format: ADME
# Cytochrome P450 3A4 = Cytochrome P450 3A4 (Homo sapiens, UniProt P08684); assay: Inhibition of CYP3A4 (unknown origin) using BOMCC as a substrate incubated for 20 mins by fluorescence based analysis; format: ADME
# CYP3A4 = CYP3A4 (Homo sapiens, UniProt P08684); assay: Potency index, ratio of test compound IC50 to ketoconazole IC50 for inhibition of CYP3A4 (unknown origin) using BOMCC as a substrate incubated for 20 mins by fluorescence based analysis; format: ADME; conditions: probe BOMCC
# [21] = molecular target: Serine/threonine-protein kinase B-raf (Homo sapiens, UniProt P15056, V600E); assay: Inhibition of BRAF V600E mutant (unknown origin) incubated for 40 mins in presence of Mg/ATP mix by [gamma p33]-ATP based scintillation counting method
# T2 sequence (Q15303 whole entry): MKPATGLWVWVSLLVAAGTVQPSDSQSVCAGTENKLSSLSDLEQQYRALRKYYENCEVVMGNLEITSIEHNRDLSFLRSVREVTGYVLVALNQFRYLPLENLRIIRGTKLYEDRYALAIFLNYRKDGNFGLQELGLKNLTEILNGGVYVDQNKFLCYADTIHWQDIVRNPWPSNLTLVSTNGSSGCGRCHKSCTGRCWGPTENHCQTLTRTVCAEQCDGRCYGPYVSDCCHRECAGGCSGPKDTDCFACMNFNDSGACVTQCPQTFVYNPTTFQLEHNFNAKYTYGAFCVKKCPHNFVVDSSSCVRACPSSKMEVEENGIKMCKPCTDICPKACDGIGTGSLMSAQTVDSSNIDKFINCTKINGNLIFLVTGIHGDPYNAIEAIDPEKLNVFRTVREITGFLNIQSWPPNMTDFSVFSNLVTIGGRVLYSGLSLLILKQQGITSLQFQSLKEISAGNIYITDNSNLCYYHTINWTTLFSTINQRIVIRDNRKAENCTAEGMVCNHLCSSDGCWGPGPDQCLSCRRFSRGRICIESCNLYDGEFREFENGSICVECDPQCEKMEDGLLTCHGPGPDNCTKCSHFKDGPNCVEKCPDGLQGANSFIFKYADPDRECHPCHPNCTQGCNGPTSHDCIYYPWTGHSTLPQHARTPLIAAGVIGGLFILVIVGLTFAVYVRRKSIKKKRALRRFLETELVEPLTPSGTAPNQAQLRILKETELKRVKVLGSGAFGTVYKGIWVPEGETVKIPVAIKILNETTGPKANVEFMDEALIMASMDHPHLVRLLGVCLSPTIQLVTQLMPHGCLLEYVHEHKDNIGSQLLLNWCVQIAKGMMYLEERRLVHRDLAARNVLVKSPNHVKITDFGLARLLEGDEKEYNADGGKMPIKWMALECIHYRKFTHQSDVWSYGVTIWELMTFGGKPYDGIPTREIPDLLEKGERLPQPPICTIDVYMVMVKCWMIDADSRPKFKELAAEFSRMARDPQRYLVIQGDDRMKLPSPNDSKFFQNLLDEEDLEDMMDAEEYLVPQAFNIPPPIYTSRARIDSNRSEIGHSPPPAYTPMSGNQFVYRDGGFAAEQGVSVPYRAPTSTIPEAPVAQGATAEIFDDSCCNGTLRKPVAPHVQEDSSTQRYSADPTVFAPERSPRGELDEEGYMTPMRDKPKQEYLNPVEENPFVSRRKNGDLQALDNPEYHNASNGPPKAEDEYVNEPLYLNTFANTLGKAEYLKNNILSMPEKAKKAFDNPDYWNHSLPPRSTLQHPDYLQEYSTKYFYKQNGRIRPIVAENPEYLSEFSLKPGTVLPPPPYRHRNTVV
# T1 sequence (P00533 whole entry): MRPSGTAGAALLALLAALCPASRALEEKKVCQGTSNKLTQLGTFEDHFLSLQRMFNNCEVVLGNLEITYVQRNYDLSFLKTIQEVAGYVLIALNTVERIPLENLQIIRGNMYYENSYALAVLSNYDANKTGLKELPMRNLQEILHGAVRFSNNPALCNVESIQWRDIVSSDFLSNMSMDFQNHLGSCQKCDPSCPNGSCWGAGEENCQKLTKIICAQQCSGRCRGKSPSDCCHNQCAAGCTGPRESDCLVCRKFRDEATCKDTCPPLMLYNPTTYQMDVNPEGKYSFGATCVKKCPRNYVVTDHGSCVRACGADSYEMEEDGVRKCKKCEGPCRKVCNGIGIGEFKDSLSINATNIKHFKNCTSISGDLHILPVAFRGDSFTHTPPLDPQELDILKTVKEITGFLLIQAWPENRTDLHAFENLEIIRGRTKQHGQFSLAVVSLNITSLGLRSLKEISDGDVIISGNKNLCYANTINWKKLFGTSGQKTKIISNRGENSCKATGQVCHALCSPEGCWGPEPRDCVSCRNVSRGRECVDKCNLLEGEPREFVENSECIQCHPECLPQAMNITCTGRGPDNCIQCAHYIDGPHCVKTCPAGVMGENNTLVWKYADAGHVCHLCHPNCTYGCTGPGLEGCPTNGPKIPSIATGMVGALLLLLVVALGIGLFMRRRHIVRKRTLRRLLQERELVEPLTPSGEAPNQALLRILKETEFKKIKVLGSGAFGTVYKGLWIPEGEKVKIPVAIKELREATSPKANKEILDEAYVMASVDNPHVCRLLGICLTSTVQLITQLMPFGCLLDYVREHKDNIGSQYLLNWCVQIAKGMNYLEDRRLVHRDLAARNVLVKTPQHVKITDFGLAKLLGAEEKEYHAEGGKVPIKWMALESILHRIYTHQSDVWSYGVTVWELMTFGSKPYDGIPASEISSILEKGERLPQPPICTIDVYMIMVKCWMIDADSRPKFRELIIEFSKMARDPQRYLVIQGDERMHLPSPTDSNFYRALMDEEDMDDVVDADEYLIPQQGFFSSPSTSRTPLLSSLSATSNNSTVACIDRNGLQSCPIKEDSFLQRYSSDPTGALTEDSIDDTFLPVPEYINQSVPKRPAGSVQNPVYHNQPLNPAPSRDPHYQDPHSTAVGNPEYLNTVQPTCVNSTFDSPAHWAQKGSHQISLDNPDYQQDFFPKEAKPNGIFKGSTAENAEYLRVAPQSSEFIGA
# Voltage-gated inwardly rectifying potassium channel KCNH2, sequence (Q12809 whole entry): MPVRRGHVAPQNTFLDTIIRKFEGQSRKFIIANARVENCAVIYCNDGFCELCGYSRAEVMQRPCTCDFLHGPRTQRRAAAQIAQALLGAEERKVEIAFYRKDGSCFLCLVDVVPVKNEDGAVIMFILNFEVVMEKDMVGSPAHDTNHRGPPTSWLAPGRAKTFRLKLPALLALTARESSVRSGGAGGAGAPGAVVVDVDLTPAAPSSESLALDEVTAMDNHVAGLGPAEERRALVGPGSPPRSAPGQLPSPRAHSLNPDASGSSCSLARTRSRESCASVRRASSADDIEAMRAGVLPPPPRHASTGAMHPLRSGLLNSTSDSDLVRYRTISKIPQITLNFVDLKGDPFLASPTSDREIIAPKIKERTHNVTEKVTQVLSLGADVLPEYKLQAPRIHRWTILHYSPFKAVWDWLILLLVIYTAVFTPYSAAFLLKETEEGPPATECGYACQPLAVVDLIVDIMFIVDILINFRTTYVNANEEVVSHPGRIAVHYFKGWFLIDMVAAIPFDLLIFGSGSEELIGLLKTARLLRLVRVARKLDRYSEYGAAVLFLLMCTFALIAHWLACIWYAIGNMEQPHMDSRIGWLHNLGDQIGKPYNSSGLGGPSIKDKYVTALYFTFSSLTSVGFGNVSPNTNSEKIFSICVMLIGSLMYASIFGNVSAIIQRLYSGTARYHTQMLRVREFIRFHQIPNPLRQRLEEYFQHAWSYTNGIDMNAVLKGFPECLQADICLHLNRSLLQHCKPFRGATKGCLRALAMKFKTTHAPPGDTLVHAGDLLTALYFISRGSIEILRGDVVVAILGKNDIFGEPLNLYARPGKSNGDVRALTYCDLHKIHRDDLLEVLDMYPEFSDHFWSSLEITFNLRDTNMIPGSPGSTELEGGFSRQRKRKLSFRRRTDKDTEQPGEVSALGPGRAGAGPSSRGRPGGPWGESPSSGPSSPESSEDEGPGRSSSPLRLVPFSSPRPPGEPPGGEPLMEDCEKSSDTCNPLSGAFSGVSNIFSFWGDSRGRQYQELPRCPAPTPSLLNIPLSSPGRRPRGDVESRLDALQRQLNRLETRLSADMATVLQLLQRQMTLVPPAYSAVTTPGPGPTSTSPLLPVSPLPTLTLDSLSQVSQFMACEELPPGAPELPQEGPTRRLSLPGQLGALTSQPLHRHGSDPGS
# hERG (KCNH2), sequence (Q12809 whole entry): as above
compound,measurement,setting,value
CS(=O)(=O)c1nccc(-c2c(-c3cccc(OCc4ccccc4)c3)nc3sccn23)n1,growth at 10 µM,[1],63.4%
same,IC50,HCC 2998,1780 nM
same,IC50,SK-MEL-5,510 nM
same,IC50,UO-31 [2],1550 nM
same,IC50,DU-145 [3],1670 nM
same,IC50,MDA-MB-468,1040 nM
same,inhibition at 10 µM,MOLT-4,73.5%
same,inhibition at 10 µM,NCI-H522,94.1%
same,inhibition at 10 µM,U-251,10.9%
same,inhibition at 10 µM,OVCAR-4,26.2%
same,inhibition at 10 µM,UO-31 [4],96.3%
same,inhibition at 10 µM,DU-145 [5],160%
same,"inhibition at 48 h, 10 µM",[6],56.4%
same,inhibition,[7],34.3%
same,inhibition,[8],63.6%
same,inhibition,[9],3.33%
same,inhibition,[10],24.8%
same,inhibition,[11],23%
same,inhibition,[12],77.5%
same,IC50,[13],9.92 µM
same,IC50,[14],8.35 µM
same,Ratio IC50,Homo sapiens [15],651
same,Ratio IC50,Homo sapiens [16],548
same,Ratio IC50,Homo sapiens [17],866
same,Ratio IC50,[18],9
same,IC50,T47D,4.08 µM
same,inhibition,[19],> 50%
same,IC50,[20],12.4 µM
same,selectivity ratio at 3 h,hERG (KCNH2),513
same,IC50,Cytochrome P450 2D6,> 90 µM
same,IC50,Cytochrome P450 3A4,17.8 µM
same,selectivity ratio at 20 min,CYP3A4,7480
same,IC50,[21],13.2 µM
